Source: ChEMBL document CHEMBL3390836, “Mannich- and LedererManasse-based analogues of the natural product S-(+)-curcuphenol as cancer proliferation and migration inhibitors” (Medchemcomm, 2012)

What was measured:
HCC 2998 = experiment: Cytotoxicity against human HCC2998 cells assessed as cell growth at 10 uM after 48 hrs by SRB assay relative to control; format: functional; details: HCC 2998, 48 h, read-out: Activity
[1] = Cytotoxicity against human UO31 cells assessed as cell growth at 10 uM after 48 hrs by SRB assay relative to control; format: functional; details: UO-31, 48 h, read-out: Activity
IGROV-1 = experiment: Cytotoxicity against human IGROV1 cells assessed as cell growth at 10 uM after 48 hrs by SRB assay relative to control; format: functional; details: IGROV-1, 48 h, read-out: Activity
SK-MEL-28 = experiment: Cytotoxicity against human SK-MEL-28 cells assessed as cell growth at 10 uM after 48 hrs by SRB assay relative to control; format: functional; details: SK-MEL-28, 48 h, read-out: Activity
[2] = Cytotoxicity against human OVCAR8 cells assessed as cell growth at 10 uM after 48 hrs by SRB assay relative to control; format: functional; details: OVCAR-8, 48 h, read-out: Activity
SF-295 = experiment: Cytotoxicity against human SF295 cells assessed as cell growth at 10 uM after 48 hrs by SRB assay relative to control; format: functional; details: SF-295, 48 h, read-out: Activity
[3] = Cytotoxicity against human HCT116 cells assessed as cell growth at 10 uM after 48 hrs by SRB assay relative to control; format: functional; details: HCT-116, 48 h, read-out: Activity
[4] = Cytotoxicity against human Hs 578T cells assessed as cell growth at 10 uM after 48 hrs by SRB assay relative to control; format: functional; details: read-out: Activity
SF-539 = experiment: Cytotoxicity against human SF539 cells assessed as cell growth at 10 uM after 48 hrs by SRB assay relative to control; format: functional; details: SF-539, 48 h, read-out: Activity
T47D = experiment: Cytotoxicity against human T47D cells assessed as cell growth at 10 uM after 48 hrs by SRB assay relative to control; format: functional; details: read-out: Activity
RPMI-8226 = experiment: Cytotoxicity against human RPMI8226 cells assessed as cell growth at 10 uM after 48 hrs by SRB assay relative to control; format: functional; details: RPMI-8226, 48 h, read-out: Activity
[5] = Cytotoxicity against human OVCAR3 cells assessed as cell growth at 10 uM after 48 hrs by SRB assay relative to control; format: functional; details: OVCAR-3, 48 h, read-out: Activity
[6] = Cytotoxicity against human UACC62 cells assessed as cell growth at 10 uM after 48 hrs by SRB assay relative to control; format: functional; details: UACC-62, 48 h, read-out: Activity
786-0 = experiment: Cytotoxicity against human 786-0 cells assessed as cell growth at 10 uM after 48 hrs by SRB assay relative to control; format: functional; details: 786-0, 48 h, read-out: Activity
NCI-H23 = experiment: Cytotoxicity against human NCI-H23 cells assessed as cell growth at 10 uM after 48 hrs by SRB assay relative to control; format: functional; details: NCI-H23, 48 h, read-out: Activity
MCF7 [7] = experiment: Cytotoxicity against human MCF7 cells assessed as cell growth at 10 uM after 48 hrs by SRB assay relative to control; format: functional; details: MCF7, 48 h, read-out: Activity
RXF 393 = experiment: Cytotoxicity against human RXF393 cells assessed as cell growth at 10 uM after 48 hrs by SRB assay relative to control; format: functional; details: RXF 393, 48 h, read-out: Activity
MCF7 [8] = experiment: Growth inhibition of human MCF7 cells after 72 hrs by MTT assay; format: functional, cell-based; details: MCF7, 72 h
NCI-H226 = experiment: Cytotoxicity against human NCI-H226 cells assessed as cell growth at 10 uM after 48 hrs by SRB assay relative to control; format: functional; details: NCI-H226, 48 h, read-out: Activity
[9] = Cytotoxicity against human OVCAR5 cells assessed as cell growth at 10 uM after 48 hrs by SRB assay relative to control; format: functional; details: OVCAR-5, 48 h, read-out: Activity
MDA-MB-231 [10] = experiment: Cytotoxicity against human MDA-MB-231 cells assessed as growth inhibition after 24 hrs by MTT assay; format: cell-based; details: MDA-MB-231, 24 h
HT-29 = experiment: Cytotoxicity against human HT-29 cells assessed as cell growth at 10 uM after 48 hrs by SRB assay relative to control; format: functional; details: HT-29, 48 h, read-out: Activity
COLO 205 = experiment: Cytotoxicity against human COLO205 cells assessed as cell growth at 10 uM after 48 hrs by SRB assay relative to control; format: functional; details: COLO 205, 48 h, read-out: Activity
SK-MEL-2 = experiment: Cytotoxicity against human SK-MEL-2 cells assessed as cell growth at 10 uM after 48 hrs by SRB assay relative to control; format: functional; details: SK-MEL-2, 48 h, read-out: Activity
[11] = Cytotoxicity against human NCI-ADR-RES cells assessed as cell growth at 10 uM after 48 hrs by SRB assay relative to control; format: functional; details: read-out: Activity
[12] = Cytotoxicity against human EKVX cells assessed as cell growth at 10 uM after 48 hrs by SRB assay relative to control; format: functional; details: read-out: Activity
HOP-62 = experiment: Cytotoxicity against human HOP62 cells assessed as cell growth at 10 uM after 48 hrs by SRB assay relative to control; format: functional; details: HOP-62, 48 h, read-out: Activity
SW-620 = experiment: Cytotoxicity against human SW620 cells assessed as cell growth at 10 uM after 48 hrs by SRB assay relative to control; format: functional; details: SW-620, 48 h, read-out: Activity
MDA-MB-231 [13] = experiment: Cytotoxicity against human MDA-MB-231 cells assessed as cell growth at 10 uM after 48 hrs by SRB assay relative to control; format: functional; details: MDA-MB-231, 48 h, read-out: Activity
NCI-H460 = experiment: Cytotoxicity against human NCI-H460 cells assessed as cell growth at 10 uM after 48 hrs by SRB assay relative to control; format: functional; details: NCI-H460, 48 h, read-out: Activity
ACHN = experiment: Cytotoxicity against human ACHN cells assessed as cell growth at 10 uM after 48 hrs by SRB assay relative to control; format: functional; details: read-out: Activity
[14] = Cytotoxicity against human HCT15 cells assessed as cell growth at 10 uM after 48 hrs by SRB assay relative to control; format: functional; details: HCT-15, 48 h, read-out: Activity
TK-10 = experiment: Cytotoxicity against human TK10 cells assessed as cell growth at 10 uM after 48 hrs by SRB assay relative to control; format: functional; details: TK-10, 48 h, read-out: Activity
SN12C = experiment: Cytotoxicity against human SN12C cells assessed as cell growth at 10 uM after 48 hrs by SRB assay relative to control; format: functional; details: read-out: Activity
[15] = Cytotoxicity against human OVCAR4 cells assessed as cell growth at 10 uM after 48 hrs by SRB assay relative to control; format: functional; details: OVCAR-4, 48 h, read-out: Activity
MOLT-4 = experiment: Cytotoxicity against human MOLT4 cells assessed as cell growth at 10 uM after 48 hrs by SRB assay relative to control; format: functional; details: MOLT-4, 48 h, read-out: Activity

Compound	growth at 10 µM (HCC 2998)	growth at 10 µM [1]	growth at 10 µM (IGROV-1)	growth at 10 µM (SK-MEL-28)	growth at 10 µM [2]	growth at 10 µM (SF-295)	growth at 10 µM [3]	growth at 10 µM [4]	growth at 10 µM (SF-539)	growth at 10 µM (T47D)	growth at 10 µM (RPMI-8226)	growth at 10 µM [5]	growth at 10 µM [6]	growth at 10 µM (786-0)	growth at 10 µM (NCI-H23)	growth at 10 µM (MCF7 [7])	growth at 10 µM (RXF 393)	IC50 (MCF7 [8])	growth at 10 µM (NCI-H226)	growth at 10 µM [9]	other results
CC(C)=CCC[C@H](C)c1ccc(C)c2c1OCN(CCCCCO)C2	73.5%	57%	90.4%	115%	90.1%	110%	68.6%	81.2%	84.5%	88.1%	76.7%	99.7%	82.8%	69.5%	91.3%	88.7%	90.1%	6.9 µM	98.4%	87.4%	IC50 (MDA-MB-231 [10]): > 20 µM; growth at 10 µM (HT-29): 27.2%; growth at 10 µM (COLO 205): 90%; growth at 10 µM (SK-MEL-2): 92.7%; growth at 10 µM [11]: 76%; growth at 10 µM [12]: 102%; growth at 10 µM (HOP-62): 92.5%; growth at 10 µM (SW-620): 94.9%; growth at 10 µM (MDA-MB-231 [13]): 93.4%; growth at 10 µM (NCI-H460): 81.1%; growth at 10 µM (ACHN): 94.1%; growth at 10 µM [14]: 94%; growth at 10 µM (TK-10): 73.7%; growth at 10 µM (SN12C): 78.6%; growth at 10 µM [15]: 95.5%; growth at 10 µM (MOLT-4): 66.5%
CC(C)=CCC[C@H](C)c1ccc(C)c(CNCCCCCO)c1O	73%	54.9%	91.1%	112%	98%	108%	78%	88.4%	92.1%	99.1%	85.3%	84.2%	94.2%	87.3%	92.5%	79.4%	84.6%	7.6 µM	99.6%	99.4%	IC50 (MDA-MB-231 [10]): > 20 µM; growth at 10 µM (HT-29): 55%; growth at 10 µM (COLO 205): 105%; growth at 10 µM (SK-MEL-2): 97.6%; growth at 10 µM [11]: 86.8%; growth at 10 µM [12]: 90.5%; growth at 10 µM (HOP-62): 88.4%; growth at 10 µM (SW-620): 91.9%; growth at 10 µM (MDA-MB-231 [13]): 96.5%; growth at 10 µM (NCI-H460): 94.5%; growth at 10 µM (ACHN): 97.7%; growth at 10 µM [14]: 86.1%; growth at 10 µM (TK-10): 92.2%; growth at 10 µM (SN12C): 98%; growth at 10 µM [15]: 72.9%; growth at 10 µM (MOLT-4): 83.1%
CC(C)=CCC[C@H](C)c1ccc(C)c2c1OCN(CCCCC(=O)O)C2	102%	69.7%	108%	115%	88.8%	102%	88.6%	104%	91.8%	95.4%	92.3%	112%	79.7%	82.6%	95.1%	92.5%	102%	> 20 µM	95.7%	90.8%	IC50 (MDA-MB-231 [10]): > 20 µM; growth at 10 µM (HT-29): 83.3%; growth at 10 µM (COLO 205): 110%; growth at 10 µM (SK-MEL-2): 84%; growth at 10 µM [11]: 85.3%; growth at 10 µM [12]: 102%; growth at 10 µM (HOP-62): 94.6%; growth at 10 µM (SW-620): 101%; growth at 10 µM (MDA-MB-231 [13]): 91.8%; growth at 10 µM (NCI-H460): 105%; growth at 10 µM (ACHN): 98.8%; growth at 10 µM [14]: 92.3%; growth at 10 µM (TK-10): 86.1%; growth at 10 µM (SN12C): 97.6%; growth at 10 µM [15]: 105%; growth at 10 µM (MOLT-4): 102%
CC(C)=CCC[C@H](C)c1ccc(C)c(CNCCCCC(=O)O)c1O	101%	81.9%	105%	109%	94.1%	101%	101%	102%	111%	113%	95.1%	108%	92.3%	100%	98.8%	101%	121%	> 20 µM	91.1%	102%	IC50 (MDA-MB-231 [10]): > 20 µM; growth at 10 µM (HT-29): 101%; growth at 10 µM (COLO 205): 119%; growth at 10 µM (SK-MEL-2): 104%; growth at 10 µM [11]: 103%; growth at 10 µM [12]: 97.9%; growth at 10 µM (HOP-62): 106%; growth at 10 µM (SW-620): 98.3%; growth at 10 µM (MDA-MB-231 [13]): 97.6%; growth at 10 µM (NCI-H460): 105%; growth at 10 µM (ACHN): 102%; growth at 10 µM [14]: 105%; growth at 10 µM (TK-10): 105%; growth at 10 µM (SN12C): 102%; growth at 10 µM [15]: 93.3%; growth at 10 µM (MOLT-4): 95.1%
